For assay [1], the system named is Mouse preadipocyte strain 3T3-L1. Kind of assay: Inhibition of differentiation as an indication of acetic acid uptake. It counts as cell-based. Particulars: Mus musculus, 3T3-L1, 0.1 μM test substance, control (0.01% dimethylsulfoxide) = 100%, read-out: Rate of Uptake (%) of [2-14C] acetic acid. The method in brief: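 Confluent 3T3-L1 cells induced to differentiate for 4 days (insulin, IBMX, dexamethasone, 5% FBS) with test compound at 0.1 μM final or 0.01% DMSO, then 2 days in insulin maintenance medium, at 37 °C, 10% CO2. [2-14C]acetic acid uptake over 1 hr counted by scintillation; expressed as % of DMSO control.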

The subject of assay [2] is human colon cancer cells COL-2-JCK. Briefly: Inhibition of colony forming activity in human colon cancer cells. It counts as cell-based. Particulars: Homo sapiens, 240 h; 1 μM test compound; 10 days; sum of colony areas vs control; read-out: Inhibition Rate (%) against the colony forming activity. The method in brief:
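COL-2-JCK cells seeded at 300 cells/well and grown 10 days at 37 °C, 5% CO2 with compound at 1 μM final (0.1% DMSO). Colonies stained with crystal violet in formalin; inhibition % = (1 − treated/control colony area)×100.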

In the case of `Cc1csc(NC(=O)c2cc([N+](=O)[O-])ccc2Cl)n1` [Example 3, N-(4-Methylthiazol-2-yl)-(2-chloro-5-nitrophenyl)carboxamide], the activity at 0.1 µM in assay [1] came to 68.9%. Moreover, the inhibition at 1 µM in assay [2] worked out at 27%.
In the same order, the values of `O=C(Nc1nc2ccc(Cc3ccc(F)cc3)cc2s1)c1cc([N+](=O)[O-])ccc1Cl` [Example 90, N-[6-(4-Fluorobenzyl)benzothiazol-2-yl]-(2-chloro-5-nitrophenyl)carboxamide] are 60.5% and 47%.

Broadly, the inhibition is the change of the read-out against control, counted positive when it falls.

The values above are taken from patent US20030134859A1 (SANKYO COMPANY, LIMITED, priority 2000, published 2003).
